A short description of data set [1]: Volume of distribution in SCID mouse at 5 umol/kg, iv. It is filed as ADME. The conditions noted are these: in vivo, dose 5 µmol/kg.
A short description of data set [2]: Dissociation constant, pKa of the compound. The data set is classed as physicochemical.
Data set [3] in a line: Volume of distribution in Han-wistar rat at […], iv. The data set is classed as ADME. To be noted: in vivo, dose 1.5 µmol/kg.
Data set [4] in a line: Lipophilicity, logD of the compound in octanol/buffer at pH 7.4 by shake flask method. It is filed as physicochemical.
A short description of data set [5]: Apparent permeability of compound from apical to basolateral side in human Caco-2 cells. It is filed as ADME, cell-based. In general terms: Passage across Caco-2 layers is used to estimate intestinal permeability.
Data set [6] can be described thus: Drug metabolism in SCID mouse plasma assessed as 1-Isopropyl-5-(2-(piperidin-4-yl)-1H-pyrrolo[2,3-b]pyridin-4-yl)-pyridin-2(1H)-one metabolite formation at 0.5 mg/kg, iv administered as cassette dose. It is filed as ADME, organism-based. The conditions noted are these: in vivo.

The values that follow come from ChEMBL document CHEMBL5096204 (J Med Chem, 2021).

With `COc1cc(F)ccc1-c1ccnc2[nH]c(C3CCNCC3)cc12`, the Vd in data set [1] came to 14 L/kg; in data set [3], 10 L/kg. The compound also gave a pKa in data set [2] of 10.2. Also, in data set [4], the log distribution coefficient (logD) is 1.2.

`COc1cc(F)ccc1-c1ccnc2[nH]c(C3CCN(C)CC3)cc12` had a pKa in data set [2] of 9. This compound returned a Vd in data set [3] of 5.2 L/kg. This compound yielded a logD in data set [4] of 2.6.

Take `CN(C)C(=O)CN1CCC(c2cc3c(-c4ccc(=O)n(C5CCC5)c4)ccnc3[nH]2)CC1`: the logD in data set [4] was 1.9.

Turning to `COc1cc(F)ccc1-c1ccnc2[nH]c(-c3ccc(CN4CCOCC4)cc3)cc12`, the logD in data set [4] was determined as 4.4.

In the case of `COc1cc(C(=O)N2CCCC2)ccc1-c1ccnc2[nH]c(C3CCNCC3)cc12`, the Papp A→B in data set [5] is below 0.01 ×10⁻⁶ cm/s. Further, the pKa in data set [2] was 10.2. For the same compound, in data set [3], the Vd came out at 5.8 L/kg.

In data set [4], `COCCn1cc(-c2ccnc3[nH]c(C4CCN(CC(=O)N(C)C)CC4)cc23)ccc1=O` registered a logD of 1.1.

For `COc1cc(C(=O)N2CCCC2)ccc1-c1ccnc2[nH]c(-c3ccc(CN4CCOCC4)cc3)nc12`, in data set [4], the logD was 2.6.

In data set [3], `COc1cc(F)ccc1-c1ccnc2[nH]c(C3CCN(C(C)=O)CC3)cc12` returned a distribution volume (Vd) of 1.7 L/kg. Moreover, the logD in data set [4] worked out at 3.4.

Turning to `COc1cc(=O)n(C)cc1-c1ccnc2[nH]c(C3CCN(CC(=O)N(C)C)CC3)cc12`, the logD in data set [4] was 0.7.

For the compound `CCn1cc(-c2ccnc3[nH]c(C4CCN(CC(=O)N(C)C)CC4)cc23)ccc1=O`, the logD in data set [4] was found to be 1.2.

In turn, `CNC(=O)CN1CCC(c2cc3c(-c4ccc(=O)n(C(C)C)c4)ccnc3[nH]2)CC1` had a pKa in data set [2] of 6.9. The compound also returned a Vd in data set [3] of 2.6 L/kg. This compound also came in with a pH-dependent lipophilicity (logD) in data set [4] of 2.2.

`CC(C)n1cc(-c2ccnc3[nH]c(C4CCN(CC(=O)N(C)C)CC4)cc23)cnc1=O` yielded a Vd in data set [3] of 2.9 L/kg. Moreover, the pH-dependent lipophilicity (logD) in data set [4] was determined as 0.4.

`COc1cc(F)ccc1-c1ccnc2[nH]c(C3CCN(CCO)CC3)cc12` came in with a pKa in data set [2] of 8.5. The Vd in data set [3] was found to be 12 L/kg. This compound gave a logD in data set [4] of 2.4.

In data set [4], `CC(=O)N1CCC(c2cc3c(-c4ccc(=O)n(C(C)C)c4)ccnc3[nH]2)CC1` returned a logD of 2.1.

For `Cc1nc2ccc(-c3ccnc4[nH]c(C5CCN(CC(=O)N(C)C)CC5)cc34)cc2n1C(C)C`, the logD in data set [4] is 3.1.

Take `COc1cc(F)ccc1-c1ccnc2[nH]c(C3CCOCC3)cc12`: the logD in data set [4] is 3.9.

`COc1cc(F)ccc1-c1ccnc2[nH]c(-c3ccc(CN4CCOCC4)cc3)nc12` displayed a logD in data set [4] of 3.7.

As for `COc1cc(F)ccc1-c1ccnc2[nH]c(C3CCC(NC(C)=O)C3)nc12` (centres undefined), the logD in data set [4] was 2.3.

In turn, `CC(C)n1cc(-c2ccnc3[nH]c(C4CCNCC4)cc23)ccc1=O` showed a logD in data set [4] of -0.2.

In the case of `CC(C)n1cc(-c2ccnc3[nH]c(C4CCN(Cc5cccs5)CC4)cc23)ccc1=O`, the pKa in data set [2] is 6.5. In data set [3], this compound yielded a Vd of 1.6 L/kg. The logD in data set [4] was 3.4.

The compound `COc1cc(F)ccc1-c1ccnc2[nH]c(C3CCNCC3)nc12` showed a logD in data set [4] of 0.

For `COc1cc(C(=O)N2CCCC2)ccc1-c1ccnc2[nH]c(C3CCN(CCO)CC3)cc12`, in data set [4], the logD was 1.3.

`CN(C)C(=O)CN1CCC(c2cc3c(-c4ccc(=O)n(C5CCOCC5)c4)ccnc3[nH]2)CC1` gave a logD in data set [4] of 1.1.

In the case of `COc1cc(F)ccc1-c1ccnc2[nH]c(C3CCN(CC(=O)N(C)C)CC3)cc12`, the pKa in data set [2] amounted to 8. This compound registered a Vd in data set [3] of 2.3 L/kg. In addition, the logD in data set [4] was determined as 2.9.

As for `CC(C)n1cc(-c2ccnc3[nH]c(C4CCN(CC(=O)N5CCCCC5)CC4)cc23)ccc1=O`, the Vd was 1.5 L/kg in data set [1] and 8.1 L/kg in data set [3]. In addition, in data set [2], the pKa was 7.8. For the same compound, the Drug metabolism result in data set [6] was “Metabolite_Notdetected”.

The compound `CC(C)n1cc(-c2ccnc3[nH]c(C4CCN(CC(=O)N(C)C)CC4)cc23)ccc1=O` yielded a pKa in data set [2] of 7.9. This compound also came in with a Vd in data set [3] of 5.9 L/kg.

In turn, `CSCCn1cc(-c2ccnc3[nH]c(C4CCN(CC(=O)N(C)C)CC4)cc23)ccc1=O` had a logD in data set [4] of 1.7.

For `CN(C)C(=O)CN1CCC(c2cc3c(-c4ccc(=O)n(CCC5CCOCC5)c4)ccnc3[nH]2)CC1`, in data set [4], the logD amounted to 1.5.

On to `COc1cc(C(=O)N2CCCC2)ccc1-c1ccnc2[nH]c(C3CCOCC3)cc12`, for which the volume of distribution (Vd) in data set [3] came to 0.8 L/kg. In addition, in data set [4], the logD amounted to 3.

With `CC(C)n1cc(-c2ccnc3[nH]c(C4CCN(CC(F)F)CC4)cc23)ccc1=O`, in data set [2], the pKa came to 6. Besides, the Vd in data set [3] stood at 1.8 L/kg. For the same compound, the logD in data set [4] was 2.9.

Regarding `O=C(c1ccc(-c2ccnc3[nH]c(-c4ccc(CN5CCOCC5)cc4)nc23)cc1)N1CCCC1`, the logD in data set [4] is 3.2.

With `CC(C)Cn1cc(-c2ccnc3[nH]c(C4CCN(CC(=O)N(C)C)CC4)cc23)ccc1=O`, the logD in data set [4] was found to be 2.

Regarding `CC(C)n1nc(-c2ccnc3[nH]c(C4CCN(CC(=O)N(C)C)CC4)cc23)ccc1=O`, in data set [2], the pKa turned out to be 7.6. For the same compound, the Vd in data set [3] was found to be 2.9 L/kg. For the same compound, in data set [4], the pH-dependent lipophilicity (logD) was found to be 2.

The compound `CN(C)C(=O)CN1CCC(c2cc3c(-c4ccc(=O)n(CC5CCOCC5)c4)ccnc3[nH]2)CC1` came in with a logD in data set [4] of 1.4.

In data set [3], `COc1cc(C(=O)N2CCCC2)ccc1-c1ccnc2[nH]c(C3CCN(C(C)=O)CC3)cc12` returned a distribution volume (Vd) of 0.9 L/kg. In data set [4], this compound came in with a logD of 2.5.

In the case of `CN(C)C(=O)CN1CCC(c2cc3c(-c4ccc(=O)n(C)c4)ccnc3[nH]2)CC1`, in data set [4], the logD stood at 1.1.

Consider `CC(C)n1cc(-c2ccnc3[nH]c(C4CCN(CC(=O)N5CCCC5)CC4)cc23)ccc1=O`, for which the Vd in data set [1] was 1.2 L/kg; in data set [3] it was 3.9 L/kg. In data set [2], this compound showed a pKa of 7.8. The Drug metabolism result in data set [6] is given as “Metabolite_Notdetected”.

In data set [3], `COc1cc(F)ccc1-c1ccnc2[nH]c([C@H]3CC[C@H](NC(C)=O)CC3)cc12` came in with a Vd of 2.5 L/kg. Also, the logD in data set [4] was found to be 3.8.

One may read the Vd as the apparent volume that relates the amount in the body to the concentration in plasma or blood. Low values mean confinement near the circulation, high ones extensive tissue distribution. Broadly, the pKa is the pH at which an ionisable group is half protonated. Read a low pKa as a stronger acid or weaker base. Usually logD stands for the decadic logarithm of the distribution of all forms, ionised or not, between an organic phase and buffer at a given pH. Read a high logD as a more lipophilic compound. A word on the Papp A→B: it is how fast a substance crosses the layer from the apical side.
